Experimental data as given in patent US9988627B2, “Formats for organic compounds for use in RNA interference” (NOVARTIS AG, priority 2013, dated 2018).
“Also recorded” adds a separate entry of the source.

Assays:
[1] = test system: human APOC3; assay: 18-mer with internal spacer RNAi agents, residual mRNA in Huh7 at 15 nM; type: cell-based
Source text: In the various RNAi agents described in this example, a nucleotide at any of positions 1 to 18 was individually replaced by a spacer subunit, and RNA interference activity was retained. The 3′ end of each strand terminates in a phosphate or modified internucleoside linker and further comprises, in 5′ to 3′ order, a second spacer, a second phosphate or modified internucleotide linker, and a 3′ end cap.
Similarly, U027, A027, G027 indicate that the nucleotides U, A or G, respectively, are absent and have been replaced by a spacer, which is ribitol. The target used in human APOC3. The numbers in columns 2 represent residual mRNA levels; thus, 5.8 in column 2, row 2, indicates residual mRNA level of 5.8% or 94.2% gene knockdown. SD, standard deviation.

[2] = test system: FVII (Factor VII); assay: RNA interference of 3′-capped mF7-III siRNAs against FVII (FIG. 2); type: cell-based, mouse; details: 19-mer blunt-ended mF7-III siRNA, A12S17
[3] = test system: Hepcidin (HAMP) mRNA; assay: Hepcidin mRNA down regulation in HuH-7 cells by 18-mer HAMP siRNA-PAZ ligand conjugates; type: cell-based, Homo sapiens; details: format S402+ribitol+MOE clamp
Source text: Potency of 18-mer HAMP (Hepcidin) siRNA-PAZ Ligand Conjugates is studied.
A variety of constructs were made using the same two sequences. […] A variety of 3′ end caps is also used.
Hepcidin mRNA down regulation in HuH-7 cells is studied at 3 doses.
Two test sequences used are hs_HAMP_400 and 402. “hs” indicates “Homo sapiens”. 400 is a sequence beginning at position 400 and 402 is an overlapping sequence […]
Various other hs_HAMP 400 and 402 are depicted in FIG. 5A (Guide or antisense strand) and 5B (corresponding Sense strand).
This Table indicates the Nickname (“Oligo Identifier”) for the 3′ end cap, and the DMT, Succinate and Carboxylate variants thereof; the Carboxylate Kd; the KD (knockdown) mediated by a Hepcidin RNAi agent comprising the 3′ end cap (format: S402+ribitol+MOE clamp) at 5 nM in vitro; and the approximate (approx.) IC50

[4] = test system: hepcidin (Hamp1) mRNA in liver; assay: In vivo hepcidin knockdown in mouse liver (mRNA-qPCR), LNP569 Hamp254 18-mers; details: 1×3 mg/kg i.v., 48 h (day 2)
Experimental: PBS: phosphate-buffered saline (negative control). This experiment was performed in vivo in the mouse. These were single 3 mg/kg dose i.v., and Hepcidin mRNA knockdown in liver was measured after 2 and 7 days.
LNP569 is a lipid nanoparticle preparation of the RNAi agent.
Two timepoints—48 and 168 hrs post-injection (both 3 mg/kg).
Assess hepcidin knockdown in liver (mRNA-qPCR)

| Compound | % Res mRNA_Huh7_15 nM [1] [%] | also measured |
| --- | --- | --- |
| 4 (sense GACAGUAUUCUCAGUGCU; antisense AGCACUGAGAAUACGUC; chemical modifications, end caps, chemistry not fully specified) [compound 4] | 9.5 | – |
| 9 (sense GACAGUAUUCUCAGUGCU; antisense AGCACUGAGAUACUGUC; siRNA; 2'-modified nucleotides, phosphates, 3' end caps, further chemistry not given here) [compound 9] | 56.7 | – |
| 16 (sense GACAGUAUUCUCAGUGCU; antisense AGACUGAGAAUACUGUC; siRNA; modified with OMe, F, MOE, ribitol spacers, code 006 undefined, further chemistry not given here) [compound 16] | 6.8 | – |
| 14 (sense GACAGUAUUCUCAGUGCU; antisense AGCAUGAGAAUACUGUC; siRNA; modified with OMe, F, MOE, ribitol spacers, code 006 undefined, further chemistry not given here) [compound 14] | 3.2 | – |
| 11 (sense GACAGUAUUCUCAGUGCU; antisense AGCACUGGAAUACUGUC; siRNA; modified with OMe, F, MOE, ribitol spacers, code 006 undefined, further chemistry not given here) [compound 11] | 22.3 | – |
| 3 (sense GACAGUAUUCUCAGUGCU; antisense AGCACUGAGAAUACUUC; chemical modifications, end caps, chemistry not fully specified) [compound 3] | 11.3 | – |
| 20 (sense GACAGUAUUCUCAGUGCU; antisense AGCACUGAGAAUACUGUC; siRNA; chemical modifications, end caps, further chemistry not given here) [compound 20] | 9.7 | – |
| 21 (sense GpGpApC004pApGpU004pApU004pU004pC004pU004pC004pApGpU004pGpC004pU004pU002pU002; antisense ApGpCpApCpU004pGpApGpApApU004pApCpU004pGpU004pCpCpU002pU002; chemical modifications, as printed in the source, key not given here) [compound 21] | 6.5 | – |
| 13 (sense GACAGUAUUCUCAGUGCU; antisense AGCACGAGAAUACUGUC; siRNA; modified with OMe, F, MOE, DNA, ribitol spacers, code 006 undefined, further chemistry not given here) [compound 13] | 4.4 | – |
| C1C2CC3CC1CC(C2)C3 [Adamantane, adamantane] | – | ability to mediate RNA interference [2]: allow the RNAi agent to perform RNA interference |
| 18 (sense GACAGUAUUCUCAGUGCU; antisense GCACUGAGAAUACUGUC; chemical modifications, end caps, chemistry not fully specified) [compound 18] | 7.6 | – |
| 7 (sense GACAGUAUUCUCAGUGCU; antisense AGCACUGAGAAACUGUC; chemical modifications, end caps, chemistry not fully specified) [compound 7] | 22 | – |
| 12 (sense GACAGUAUUCUCAGUGCU; antisense AGCACUAGAAUACUGUC; siRNA; modified with OMe, F, MOE, ribitol spacers, code 006 undefined, further chemistry not given here) [compound 12] | 10.5 | – |
| 17 (sense GACAGUAUUCUCAGUGCU; antisense ACACUGAGAAUACUGUC; chemical modifications, end caps, chemistry not fully specified) [compound 17] | 57.4 | – |
| 6 (sense GACAGUAUUCUCAGUGCU; antisense AGCACUGAGAAUCUGUC; chemical modifications, end caps, chemistry not fully specified) [compound 6] | 33.1 | – |
| 5 (sense GACAGUAUUCUCAGUGCU; antisense AGCACUGAGAAUAUGUC; chemical modifications, end caps, chemistry not fully specified) [compound 5] | 25.6 | – |
| COc1ccc(C(OCc2cc(Br)cc(CO)c2)(c2ccccc2)c2ccc(OC)cc2)cc1 [compound 2, (3-((bis(4-methoxyphenyl)(phenyl)methoxy)methyl)-5-bromophenyl)methanol] | 3.4 | – |
| OCCCCCCO [C6, 1,6-hexane-diol] | – | ability to mediate RNA interference [2]: allow the RNAi agent to perform RNA interference; Hepcidin KD at 5 nM in vitro (%) [3]: 66%; Hepcidin knockdown in vivo at 48 hours post-dose [4]: more efficacious than the 21-mer format; also recorded: able to mediate Hepcidin knockdown |
| OCCOCCOCCO [Triethylene glycol, triethylene glycol] | – | ability to mediate RNA interference [2]: allow the RNAi agent to perform RNA interference |
| 15 (sense GACAGUAUUCUCAGUGCU; antisense AGCCUGAGAAUACUGUC; siRNA; modified with OMe, F, MOE, ribitol spacers, code 006 undefined, further chemistry not given here) [compound 15] | 18.3 | – |
| 8 (sense GACAGUAUUCUCAGUGCU; antisense AGCACUGAGAUACUGUC; chemical modifications, end caps, chemistry not fully specified) [compound 8] | 23.8 | – |
| 10 (sense GACAGUAUUCUCAGUGCU; antisense AGCACUGAAAUACUGUC; siRNA; modified with OMe, F, MOE, ribitol spacers, code 006 undefined, further chemistry not given here) [compound 10] | 55 | – |
| 19 (sense GACAGUAUUCUCAGUGCU; antisense AGCACUGAGAAUACUGUC; chemical modifications, end caps, chemistry not fully specified) [compound 19] | 6.3 | – |
| 1 (sense GACAGUAUUCUCAGUGCU; antisense AGCACUGAGAAUACUGU; chemical modifications, end caps, chemistry not fully specified) [compound 1] | 5.8 | – |
